For this series the following is noted: polymer system of polydimethylsiloxane vinyl terminated at various viscosity and platinum-mono, di, tri and/or tetramethyldisiloxane complex.

Text: These components may be combined in different ratios to make the polymer. […] The amount of vinyl siloxane cross-linker may determine the rate of the drug release and diffusivity of the polymer to the drug.

As for `CC(=O)O[C@H]1C(=O)[C@@]2(C)[C@H]([C@H](OC(=O)c3ccccc3)[C@]3(O)C[C@H](OC(=O)[C@H](O)[C@@H](NC(=O)c4ccccc4)c4ccccc4)C(C)=C1C3(C)C)[C@]1(OC(C)=O)CO[C@@H]1C[C@@H]2O` [paclitaxel], the release profile result is “acceptable”.

The values above are taken from patent US9533128B2, “Devices for maintaining patency of surgically created channels in tissue” (Broncus Medical Inc., priority 2003, dated 2017).
